Consider 20 molecules from PubChem BioAssay (NCI).

Test systems include SN12C renal; NCI/ADR-RES ovarian; HL-60(TB) leukemia; MALME-3M melanoma; DU-145 prostate; SNB-19 CNS; M14 melanoma; SF-268 CNS; SR leukemia; CCRF-CEM leukemia; NCI-H522 lung; HT29 colon.
Common to all, as to assay: NCI tumour cell line growth inhibition, 48 h

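Growth conditions: 96-well plates. Treatment: test compound, 48 hours, 5 concentrations. Analysis: linear interpolation between bracketing concentrations; unreached endpoints set to highest concentration. The concentration for full growth arrest is given as TGI.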

As for `Cc1ccc2c(=O)cc(-c3ccc(C)s3)[nH]c2n1`, the TGI was more than 55.9 µM in the experiment with SN12C renal; 0.676 µM in the experiment on NCI/ADR-RES ovarian; 0.607 µM with HL-60(TB) leukemia; 53 µM in the experiment on MALME-3M melanoma; more than 55.4 µM in the experiment with DU-145 prostate; more than 100 µM in the experiment on SNB-19 CNS. The TGI with M14 melanoma is 55.9 µM; with SF-268 CNS, more than 74 µM; in the experiment on SR leukemia, more than 100 µM.

Turning to `[B-][P+](CC[P+]1([B-])[C@@H](C)[C@@H](O)[C@H](O)[C@@H]1C)(c1ccccc1)c1ccccc1OC` (some centres undefined), the TGI in the experiment on SN12C renal was 26.2 µM; with NCI/ADR-RES ovarian it was 35.9 µM; in the experiment on CCRF-CEM leukemia, 46.4 µM; with NCI-H522 lung, 26.2 µM; in the experiment on HL-60(TB) leukemia, 54 µM; in the experiment with MALME-3M melanoma, 24.4 µM. Moreover, the TGI in the experiment with DU-145 prostate was 33.7 µM; with SNB-19 CNS, 30.9 µM; in the experiment with M14 melanoma, 34 µM; in the experiment with SF-268 CNS it was 32.8 µM; in the experiment with HT29 colon, 40.6 µM.

`COc1ccc(-c2c3c(n(C4OC(CO)C(O)C(O)C4O)c(=S)c2C#N)CCCC3)cc1` (centres undefined): the TGI in the experiment with SN12C renal, with NCI/ADR-RES ovarian, in the experiment on CCRF-CEM leukemia, in the experiment with HL-60(TB) leukemia, in the experiment with MALME-3M melanoma and in the experiment with M14 melanoma was more than 100 µM in each case. In addition, the TGI in the experiment on SR leukemia and with HT29 colon was more than 100 µM throughout.

Consider `O=C1NN(Cc2ccccc2)C(=O)N2CCC[C@@H]12`, for which the TGI in the experiment with SN12C renal, in the experiment with NCI/ADR-RES ovarian, in the experiment on CCRF-CEM leukemia, in the experiment on HL-60(TB) leukemia, with MALME-3M melanoma and with DU-145 prostate was more than 100 µM in each case. In addition, the TGI with SNB-19 CNS, with M14 melanoma, with SF-268 CNS and with HT29 colon was more than 100 µM in each case.

As for `CCCSc1ccc2[nH]c(N3C(=O)/C(=C/c4ccc(SC)cc4)N=C3c3ccccc3)cc2c1`, the TGI in the experiment with SN12C renal was more than 50 µM; in the experiment on NCI/ADR-RES ovarian it was more than 50 µM; in the experiment on CCRF-CEM leukemia, more than 45.8 µM; in the experiment on NCI-H522 lung, more than 50 µM; in the experiment with HL-60(TB) leukemia, 24.8 µM; with MALME-3M melanoma, more than 50 µM. The TGI in the experiment with DU-145 prostate, in the experiment with SNB-19 CNS, with M14 melanoma, with SF-268 CNS and with HT29 colon was more than 50 µM in each case.

For the molecule `O=C(c1ccccc1)N1CCC(CC2(c3cc4ccccc4[nH]3)OCCO2)CC1`, the TGI in the experiment with SN12C renal was more than 100 µM; with NCI/ADR-RES ovarian, more than 100 µM; in the experiment on CCRF-CEM leukemia, more than 100 µM; in the experiment on DU-145 prostate, more than 100 µM; in the experiment with SNB-19 CNS, more than 100 µM; in the experiment on M14 melanoma it was 39.6 µM. Besides, the values for the TGI in the experiment on SF-268 CNS, in the experiment with SR leukemia and with HT29 colon were more than 100 µM, more than 100 µM and 85.9 µM, respectively.

Regarding `CCCCc1ccc(Nc2nc(OC)c3ncn(C4CC(O)C(CO)O4)c3n2)cc1` (centres undefined), the TGI in the experiment on SN12C renal came to 26.5 µM; in the experiment on NCI/ADR-RES ovarian, 65.6 µM; with CCRF-CEM leukemia, 34.9 µM; with NCI-H522 lung, 3.83 µM; in the experiment with HL-60(TB) leukemia, 4.16 µM; in the experiment with MALME-3M melanoma it was 42.7 µM. For the same molecule, the TGI in the experiment with DU-145 prostate worked out at 37.3 µM; with SNB-19 CNS it was 34.3 µM; with M14 melanoma, 85.6 µM; with SF-268 CNS, 34.5 µM; with HT29 colon it was 37.1 µM.

With `Nc1ncnc2c1ncn2C1CCC(CP(=O)(O)O)C1` (centres undefined), the TGI in the experiment with SN12C renal, in the experiment on NCI/ADR-RES ovarian, with HL-60(TB) leukemia, in the experiment on MALME-3M melanoma, with DU-145 prostate and in the experiment on SNB-19 CNS was more than 100 µM each time. In addition, the TGI in the experiment with M14 melanoma, in the experiment on SF-268 CNS and in the experiment with HT29 colon was more than 100 µM each time.

`CC(=O)NCC1OC2COC(c3ccccc3)OC2C(NC(=O)c2ccccc2)C1OC(=O)c1ccccc1` (centres undefined): the TGI in the experiment on SN12C renal, in the experiment with NCI/ADR-RES ovarian, in the experiment on CCRF-CEM leukemia, in the experiment on HL-60(TB) leukemia, in the experiment on MALME-3M melanoma and in the experiment on DU-145 prostate was more than 100 µM in each case. Further, the TGI in the experiment with SNB-19 CNS, in the experiment on M14 melanoma, in the experiment with SF-268 CNS and in the experiment on HT29 colon was more than 100 µM each time.

In the case of `CC(=O)OCC(=O)OC[C@H](OCc1ccccc1)[C@@H]1[C@H](OC(C)=O)C(=O)N1Cc1ccccc1`, the TGI in the experiment on SN12C renal, with NCI/ADR-RES ovarian, with CCRF-CEM leukemia, with MALME-3M melanoma, in the experiment with DU-145 prostate and in the experiment on SNB-19 CNS was more than 100 µM each time. The TGI in the experiment on M14 melanoma, in the experiment with SF-268 CNS, with SR leukemia and with HT29 colon was more than 100 µM throughout.

For `COc1cccc(C2c3cc4c(cc3OC(NNS(=O)(=O)c3ccc(C)cc3)C2C)OCO4)c1OC` (centres undefined), the TGI in the experiment with SN12C renal was determined as 35.3 µM; in the experiment on CCRF-CEM leukemia it was 5.31 µM; in the experiment on NCI-H522 lung it was 8.61 µM; in the experiment with HL-60(TB) leukemia, 3.28 µM; in the experiment with MALME-3M melanoma, 49.9 µM; with DU-145 prostate, 7.61 µM. Further, the TGI in the experiment on SNB-19 CNS was 86.6 µM; with M14 melanoma, more than 100 µM; in the experiment on SF-268 CNS, more than 100 µM; with SR leukemia, 3.29 µM; in the experiment with HT29 colon, 13.9 µM.

With `CN(CCCNC(=O)c1cn(C)c2c1Cc1ccccc1-2)CCCNC(=O)c1cn(C)c2c1Cc1ccccc1-2`, the TGI in the experiment with SN12C renal came out at 27 µM; in the experiment with NCI/ADR-RES ovarian it was 28 µM; in the experiment on CCRF-CEM leukemia it was 17.2 µM; in the experiment with HL-60(TB) leukemia it was 28.6 µM; in the experiment with MALME-3M melanoma it was 24.5 µM; in the experiment with SNB-19 CNS, 24.1 µM. Also, the TGI with M14 melanoma was determined as 11.6 µM; in the experiment on SF-268 CNS it was 21.3 µM; with SR leukemia it was 11.1 µM; in the experiment on HT29 colon it was 5.7 µM.

For the molecule `CCCc1cc(COC)c(C#N)c(=O)[nH]1`, the TGI with SN12C renal, in the experiment on NCI/ADR-RES ovarian, with CCRF-CEM leukemia, with NCI-H522 lung, in the experiment on HL-60(TB) leukemia and with MALME-3M melanoma was more than 100 µM in each case. In addition, the TGI in the experiment with DU-145 prostate, in the experiment on SNB-19 CNS, in the experiment with M14 melanoma, in the experiment with SF-268 CNS and in the experiment with HT29 colon was more than 100 µM throughout.

For the molecule `COc1cccc(/C=C2\S/C(=N/Nc3nc(C)c(C)s3)NC2=O)c1O`, the TGI in the experiment on SN12C renal, in the experiment with NCI/ADR-RES ovarian, in the experiment on HL-60(TB) leukemia, with DU-145 prostate, with SNB-19 CNS and with M14 melanoma was more than 100 µM throughout. The TGI in the experiment with SF-268 CNS and with HT29 colon was more than 100 µM each time.

On to `CC(Nc1ccc(Cl)c(Cl)c1)c1ccncc1` (centres undefined), for which the TGI is more than 100 µM in the experiment with SN12C renal; more than 100 µM in the experiment on NCI/ADR-RES ovarian; more than 100 µM with CCRF-CEM leukemia; 37 µM in the experiment on NCI-H522 lung; more than 100 µM in the experiment on MALME-3M melanoma; 89.7 µM in the experiment on DU-145 prostate. Besides, the TGI was more than 100 µM in the experiment on SNB-19 CNS, 68.2 µM with M14 melanoma, more than 100 µM with SF-268 CNS and 72.4 µM in the experiment with HT29 colon.

Regarding `Cc1c(N=C/C=C/c2ccccc2)c(=O)n(-c2ccccc2)n1C`, the TGI is 43.4 µM with SN12C renal; 79.6 µM in the experiment with NCI/ADR-RES ovarian; 30.1 µM in the experiment with CCRF-CEM leukemia; more than 100 µM with NCI-H522 lung; 48.2 µM in the experiment on HL-60(TB) leukemia; 62.9 µM in the experiment with MALME-3M melanoma. Besides, the TGI is more than 100 µM with DU-145 prostate; more than 100 µM in the experiment on SNB-19 CNS; 38.9 µM in the experiment on M14 melanoma; more than 100 µM in the experiment on SF-268 CNS; more than 100 µM in the experiment with HT29 colon.

With `CCOC(=O)c1nc2ccc(C(F)(F)F)cc2nc1NCc1ccc(OC)c(OC)c1`, the TGI in the experiment on NCI/ADR-RES ovarian, with CCRF-CEM leukemia, with NCI-H522 lung, with HL-60(TB) leukemia, in the experiment on MALME-3M melanoma and with SNB-19 CNS was more than 100 µM each time. The TGI with M14 melanoma, in the experiment with SF-268 CNS, with SR leukemia and with HT29 colon was more than 100 µM each time.

With `COc1cccc(C2SC(N)=Nc3c2c(C)nn3C(=O)Cc2ccccc2)c1` (centres undefined), the TGI with SN12C renal, in the experiment on CCRF-CEM leukemia, with NCI-H522 lung, in the experiment with HL-60(TB) leukemia, in the experiment on MALME-3M melanoma and with DU-145 prostate was more than 100 µM throughout. For the same molecule, the TGI with SNB-19 CNS, with M14 melanoma, with SF-268 CNS, in the experiment on SR leukemia and with HT29 colon was more than 100 µM throughout.

As to `CCCCCc1c(CCCC)c(=O)[nH]c2nc(NC(=O)CCCC)ccc12`, the TGI in the experiment on SN12C renal, with NCI/ADR-RES ovarian, with CCRF-CEM leukemia, in the experiment on NCI-H522 lung, with MALME-3M melanoma and with SNB-19 CNS was more than 100 µM throughout. Moreover, the TGI with M14 melanoma, with SF-268 CNS and with SR leukemia was more than 100 µM in each case.

With `N[C@@H]1CCN(c2c(F)cc3c(=O)c(C(=O)O)cn4c3c2Oc2cc3c(ccc5ccccc53)cc2-4)C1`, the TGI was more than 100 µM in the experiment on SN12C renal; more than 100 µM with NCI/ADR-RES ovarian; 0.234 µM with CCRF-CEM leukemia; 31.6 µM in the experiment on NCI-H522 lung; more than 59.9 µM with HL-60(TB) leukemia; 23 µM in the experiment on MALME-3M melanoma. Besides, the TGI in the experiment on DU-145 prostate, in the experiment with SNB-19 CNS, with M14 melanoma and in the experiment on HT29 colon was more than 100 µM in each case.
